Patent US5134150A, “Inhibition of the 5-lipoxygenase pathway” (priority 1989, dated 1992)
Entries after “also recorded” stand apart in the source; their conditions may differ.

Experiments:
[1] = tested on: 5-lipoxygenase and LTA4 synthetase; test: Di-HETE / LTB4 production by high speed supernatant of RBL-1 cells; assay type: biochemical
Protocol: For in vitro experiments, compounds were dissolved at appropriate concentrations in ethanol or DMSO (dimethylsulfoxide) (final concentration≤1.0%) and then diluted to final concentrations using the buffers indicated in the text.
The activities of these enzymes in extracts of RBL-1 cells were assayed using the method of Jakschik and Lee, Nature, 287, 51-52 (1980). RBL-1 cells were obtained from the American Type Culture Collection (#CRL 1378) and were grown at 37° C. (5% CO2 in air) in spinner culture in MEM supplemented with 10% heat inactivated fetal calf serum. Harvested cells were washed with 50 mM sodium phosphate buffer, pH 7.0, containing 1 mM EDTA and 0.1% gelatin, resuspended in fresh buffer (5×10^7 cells/ml) and disrupted by nitrogen cavitation using the Parr bomb at 750 psi for 10 min. The broken cell extract was then centrifuged at 10,000× g for 20 minutes (min) and the supernatant centrifuged at 100,000 xIg for 60 min. Aliquots (0.25 mls) of the supernatant were preincubated with or without drugs for 10 min, after which 10 μl CaCl2 (50 mM) was added and the reaction was initiated with 2.5 μl of 2.5 mM arachidonic acid-1-^14 C (final concentration was 25 μM; specific activity 20,000 dpm/nmole). After incubation for 3 min at 37° C., the reaction was terminated by addition of 2 volumes (0.5 ml) ice cold acetone and the sample was allowed to deproteinize on ice for 10 min prior to centrifugation at 1,000× g for 10 min. The deproteinized supernatant was adjusted to pH 3.5 with 2N formic acid and extracted with 2 volumes of ice cold ethyl acetate. The extracted samples were dried under argon, redissolved in ethyl acetate and applied to Whatman LK5D thin layer chromatography (TLC) plates which were developed using the A-9 solvent system [organic phase of ethyl acetate: 2,2,5-trimethylpentane:acetic acid: water (110:50:20:10)] described by Hamberg and Samuelsson, J. Biol. Chem., 241, 257-263 (1966). Arachidonic acid, 5-HETE, LTB4 and PGD2 were quantified with a Berthold LB 2832 autoscanner.
The 5-lipoxygenase and LTA4 synthetase activities were further studied under the following conditions. An additional centrifugation of the RBL-1 supernatant was run at 100,000× g for 60 min, to remove the particulate cyclooxygenase activity. Sample incubation was done under conditions similar to those described above, i.e., 2 mM CaCl2 and […] arachidonic acid-1-^14 C, however, with an incubation time of 5 min at 5° C. Under these conditions, only the 5-lipoxygenase pathway metabolites were detectable. The 5-HETE and di-HETEs were formed at a linear rate, and substantial amounts of the arachidonic acid-1-^14 C substrate were utilized.

[2] = tested on: Experimental Allergic Encephalomyelitis Induced in Female Lewis Rats; test: Experimental allergic encephalomyelitis, hindleg paralysis; assay type: in vivo, rat (female Lewis); settings: for Inhibition of EAE, result in words: rat, in vivo
Protocol: EAE is induced in Female (Charles River) Lewis rats by a single intradermal injection of 0.1 ml of an encephalitogenic emulsion consisting of equial parts of a 50% w/v homogenate of guinea pig spinal cord and mid-brain in 0.5% aqueous phenol and Freund's complete adjuvant (4 mg/ml killed, dried M. butyricum) into a hindpaw (left) footpad. […] Any animal which becomes paralyzed during the course of the experiment is considered to have developed EAE whether or not the paralysis is permanent. Test compounds are administered daily beginning on the day of injection, for 19 days, exclusive of days 5, 6 12 and 13. Drug activity is determined by comparing the indicidence of EAE (paralysis) of the treated group with a control (vehicle) group. The level of significant difference between the treated groups and control groups is determined by a Chi-square test using a 2×2 contingency table. Body weight changes from day 0 are also statistically compared to the control group using a Student "t" test.

[3] = tested on: Arachidonic Acid-Induced Cellular Infiltration into the Rat Air Pouch; test: Arachidonic acid-induced air pouch inflammation; assay type: in vivo, rat (male Lewis); settings: for Cell infiltration into arachidonic acid air pouch, result in words: rat, in vivo
Description: (§1) In the following Examples where mice were used, they were male Balb/c mice (20-28 g), and where rats were used, they were male Lewis rats (180-210 g). All mice and rats were obtained from Charles River Breeding Laboratories, Kingston, N.Y. Within a single experiment, mice and rats were sex and age matched.
The compounds of Formula (I) were used either as the free base or in the appropriate salt form. Levamisole was used as the hydrochloride salt. The compounds were homogenized in 0.5% tragacanth. Compounds were administered by gavage at the indicated dose in a final volume of 10 ml/kg. Nordihydroguaiaretic acid (NDGA) was solubilized in dimethylacetamide and diluted with olive oil for subcutaneous administration.
Rats were shaved on the dorsal flank, and then injected subcutaneously one day later with 20 ml of air to form a defined pouch, by the method of Sedgwick et al., J. Pathology, 141, 483-495 (1983). The air pouch was reinflated as necessary over the next 6 days. To assay anti-inflammatory activity, animals were treated orally with test compound or vehicle (10 ml/kg) one hour before injection of 2.0 ml of a 2.0% carrageenan suspension containing […] penicillin and 100 µg/ml streptomycin into the air pouch. In other experiments, 5 ml of 0.1% arachidonic acid in 0.2M bicarbonate buffer was injected two hours after drug treatment. Animals were sacrificed using CO2 three hours after instillation of irritant. The exudate was then aspirated from the pouch and neutrophil count and differential cell count were measured.

[4] = tested on: Infiltration of Polymorphonuclear Leukocytes into Sites of Carrageenan-Induced Inflammation; test: Mouse carrageenan peritonitis (PMN infiltration); assay type: in vivo, mouse (male Balb/c); settings: for PMN infiltration, result in words: carrageenan peritonitis, mice
[5] = tested on: Arachidonic Acid-Induced Rat Paw Edema; test: Arachidonic acid-induced rat paw swelling; assay type: in vivo, rat (male Lewis)
Description: as §1
Auranofin, phenidone, indomethacin, naproxen, and ibuprofen were each used as the free base. The compounds of Formula (I) were used either as the free base or in the appropriate salt form. Levamisole was used as the hydrochloride salt. The compounds were homogenized in 0.5% tragacanth. Compounds were administered by gavage at the indicated dose in a final volume of 10 ml/kg. Nordihydroguaiaretic acid (NDGA) was solubilized in dimethylacetamide and diluted with olive oil for subcutaneous administration.
After determining pretreatment paw volumes by plethysmography by the method of Webb and Griswold, J. Pharmacol. Methods, 12, 149-153 (1984), rats were given test compound or vehicle one hour prior to the subplantar injection of 0.1 ml of 1 mg/ml arachidonic acid. Paw volumes were then remeasured and compared to pretreatment values and the increase in paw volume was expressed as mean values ± S.D.

[6] = 5 mg/kg, 2 hours post arachidonic acid

Fc1ccc(-c2nc3n(c2-c2ccncc2)CCS3)cc1 [Compound 1]
Di-HETE ([1]; 1 μM): 1.56 ± 0.06 nM/ml
Di-HETE ([1]; 3.3 μM): 1.34 ± 0.12 nM/ml
Di-HETE ([1]; 10 μM): 0.88 ± 0.21 nM/ml
Di-HETE ([1]; 33 μM): 0.40 ± 0.08 nM/ml
Di-HETE ([1]; 100 μM): 0.03 ± 0.04 nM/ml
IC50 ([1]; soluble extract of RBL-1 cells containing only lipoxygenase activity, read-out: IC50, eicosanoid formation (LTB4 production)): 7.5 µM
Hindleg paralysis - cumulative incidence, day 14 to 18 ([2]; 60 mg/kg/day, p.o.): 0/11
Inhibition of EAE, result in words [2]: efficacious
Cellular Infiltrate MN ([3]; 100 mg/kg): 1.5 ± 1.1 Total × 10^-6
Cellular Infiltrate PMN ([3]; 100 mg/kg): 1.2 ± 0.7 Total × 10^-6
Exudate Volume ([3]; 100 mg/kg): 2.6 ± 0.8 mL
Cell infiltration into arachidonic acid air pouch, result in words [3]: significantly reduced PMN and mononuclear cell infiltration
PMN infiltration, result in words [4]: reduced dramatically
Change in Paw Volume ([5]; 100 mg/kg, 2 hours post arachidonic acid): 0.06 ± 0.05 mL
Rat paw inflammatory response, result in words ([5]; rat, in vivo): inhibited significantly

COc1ccc2c(c1)c(CC(=O)O)c(C)n2C(=O)c1ccc(Cl)cc1 [Indomethacin]
Inhibition of eicosanoid formation / LTB4, result in words ([1]; indomethacin: concentrations up to 10^-4 M): inactive
Inhibition of EAE, result in words [2]: not indomethacin
Cellular Infiltrate MN ([3]; 5 mg/kg): 7.0 ± 6.4 Total × 10^-6
Cellular Infiltrate PMN ([3]; 5 mg/kg): 5.0 ± 3.8 Total × 10^-6
Exudate Volume ([3]; 5 mg/kg): 2.5 ± 0.8 mL
Cell infiltration into arachidonic acid air pouch, result in words [3]: did not reduce inflammation or cell infiltration; also recorded: no significant effect on cell infiltration
% Change (PMN) ([4]; 10 mg/kg, p.o., Table 3): -12%
PMN (Mean ± S.D.) ([4]; 10 mg/kg, p.o., Table 3): 8.20 ± 2.65 × 10^-5 /ml
PMN infiltration, result in words [4]: did not impair inflammatory cell infiltration
% Inhibition (paw volume) [5, 6]: 0%
Change in Paw Volume [5, 6]: 0.29 ± 0.06 mL
